The CheMixHub ionic liquid set
± gives the uncertainty stated by the source.

Test: xn = mol fraction of the nth substance listed
[1] = 298.15 K, 101 kPa, x1 = 1, x2 = 0

CC(=O)[O-].CC[n+]1ccn(C)c1 + Cn1ccnc1 + CCOC(C)=O
electrical conductivity [1]: 0.297 ± 0.006 S/m
viscosity [1]: 133.9 ± 5.6 mPa·s

CCCC[n+]1ccn(C)c1.N#C[N-]C#N + F[B-](F)(F)F.[Li+]
electrical conductivity (288.15 K, 101 kPa, x1 = 1): 0.596 ± 0.06 S/m
electrical conductivity (298.15 K, 101 kPa, x1 = 1): 0.925 ± 0.093 S/m
electrical conductivity (333.15 K, 101 kPa, x1 = 1): 2.77 ± 0.28 S/m

CCCC[n+]1ccn(C)c1.N#C[N-]C#N + F[P-](F)(F)(F)(F)F.[Li+]
electrical conductivity (288.15 K, 101 kPa, x1 = 1): 0.596 ± 0.06 S/m
electrical conductivity (298.15 K, 101 kPa, x1 = 1): 0.925 ± 0.093 S/m
electrical conductivity (333.15 K, 101 kPa, x1 = 1): 2.77 ± 0.28 S/m

CC(=O)[O-].CC[n+]1ccn(C)c1 + N#C[S-].[Na+]
electrical conductivity (303.15 K, 101 kPa, x2 = 0): 0.374 ± 0.0075 S/m
viscosity (303.15 K, 101 kPa, x2 = 0): 93.6 ± 6.1 mPa·s
electrical conductivity (313.15 K, 101 kPa, x2 = 0): 0.587 ± 0.012 S/m
viscosity (313.15 K, 101 kPa, x2 = 0): 55.5 ± 3.6 mPa·s

CCCC[N+](C)(CCCC)CCCC.[Cl-] + NC(N)=NCCC[C@H](N)C(=O)O + O
viscosity (313.15 K, 101.3 kPa, x2 = 0, x1 = 0.0007203): 0.67 ± 0.1 mPa·s
viscosity (313.15 K, 101.3 kPa, x2 = 0, x1 = 0.00144): 0.7 ± 0.1 mPa·s

C=CC[n+]1ccn(C)c1.[Cl-] + NC(N)=O
electrical conductivity (298 K, 101 kPa, x1 = 0.5579): 0.169 ± 0.004 S/m
electrical conductivity (298 K, 101 kPa, x1 = 0.6543): 0.222 ± 0.005 S/m
electrical conductivity (298 K, 101 kPa, x1 = 0.7911): 0.283 ± 0.006 S/m
electrical conductivity (298 K, 101 kPa, x1 = 1): 0.411 ± 0.009 S/m
viscosity (298.15 K, 101 kPa, x1 = 0.5579): 405 ± 20 mPa·s
viscosity (298.15 K, 101 kPa, x1 = 0.6543): 353 ± 16 mPa·s
viscosity (298.15 K, 101 kPa, x1 = 0.7911): 299 ± 13 mPa·s
viscosity (298.15 K, 101 kPa, x1 = 1): 255 ± 10 mPa·s
electrical conductivity (308 K, 101 kPa, x1 = 0.5579): 0.228 ± 0.005 S/m
electrical conductivity (308 K, 101 kPa, x1 = 0.6543): 0.298 ± 0.006 S/m
electrical conductivity (308 K, 101 kPa, x1 = 0.7911): 0.372 ± 0.008 S/m
electrical conductivity (308 K, 101 kPa, x1 = 1): 0.498 ± 0.01 S/m
electrical conductivity (318 K, 101 kPa, x1 = 0.5579): 0.287 ± 0.006 S/m
electrical conductivity (318 K, 101 kPa, x1 = 0.6543): 0.372 ± 0.008 S/m
electrical conductivity (318 K, 101 kPa, x1 = 0.7911): 0.464 ± 0.01 S/m
electrical conductivity (318 K, 101 kPa, x1 = 1): 0.618 ± 0.013 S/m
electrical conductivity (328 K, 101 kPa, x1 = 0.5579): 0.342 ± 0.007 S/m
electrical conductivity (328 K, 101 kPa, x1 = 0.6543): 0.448 ± 0.009 S/m
electrical conductivity (328 K, 101 kPa, x1 = 0.7911): 0.562 ± 0.012 S/m
electrical conductivity (328 K, 101 kPa, x1 = 1): 0.736 ± 0.015 S/m
electrical conductivity (338 K, 101 kPa, x1 = 0.5579): 0.416 ± 0.009 S/m
electrical conductivity (338 K, 101 kPa, x1 = 0.6543): 0.538 ± 0.011 S/m
electrical conductivity (338 K, 101 kPa, x1 = 0.7911): 0.677 ± 0.014 S/m
electrical conductivity (338 K, 101 kPa, x1 = 1): 0.862 ± 0.018 S/m

CCOC(=O)C[n+]1ccn(C)c1.[Cl-] + NC(N)=O
electrical conductivity (298 K, 101 kPa, x1 = 0.4945): 0.282 ± 0.006 S/m
electrical conductivity (298 K, 101 kPa, x1 = 0.5947): 0.346 ± 0.007 S/m
electrical conductivity (298 K, 101 kPa, x1 = 0.7459): 0.419 ± 0.009 S/m
electrical conductivity (298 K, 101 kPa, x1 = 1): 0.509 ± 0.01 S/m
viscosity (298.15 K, 101 kPa, x1 = 0.4945): 567 ± 31 mPa·s
viscosity (298.15 K, 101 kPa, x1 = 0.5947): 482 ± 25 mPa·s
viscosity (298.15 K, 101 kPa, x1 = 0.7459): 415 ± 20 mPa·s
viscosity (298.15 K, 101 kPa, x1 = 1): 349 ± 16 mPa·s
electrical conductivity (308 K, 101 kPa, x1 = 0.4945): 0.347 ± 0.007 S/m
electrical conductivity (308 K, 101 kPa, x1 = 0.5947): 0.433 ± 0.009 S/m
electrical conductivity (308 K, 101 kPa, x1 = 0.7459): 0.525 ± 0.011 S/m
electrical conductivity (308 K, 101 kPa, x1 = 1): 0.636 ± 0.013 S/m
electrical conductivity (318 K, 101 kPa, x1 = 0.4945): 0.414 ± 0.009 S/m
electrical conductivity (318 K, 101 kPa, x1 = 0.5947): 0.51 ± 0.01 S/m
electrical conductivity (318 K, 101 kPa, x1 = 0.7459): 0.631 ± 0.013 S/m
electrical conductivity (318 K, 101 kPa, x1 = 1): 0.764 ± 0.016 S/m
electrical conductivity (328 K, 101 kPa, x1 = 0.4945): 0.489 ± 0.01 S/m
electrical conductivity (328 K, 101 kPa, x1 = 0.5947): 0.607 ± 0.012 S/m
electrical conductivity (328 K, 101 kPa, x1 = 0.7459): 0.741 ± 0.015 S/m
electrical conductivity (328 K, 101 kPa, x1 = 1): 0.916 ± 0.019 S/m
electrical conductivity (338 K, 101 kPa, x1 = 0.4945): 0.602 ± 0.012 S/m
electrical conductivity (338 K, 101 kPa, x1 = 0.5947): 0.722 ± 0.015 S/m
electrical conductivity (338 K, 101 kPa, x1 = 0.7459): 0.883 ± 0.018 S/m
electrical conductivity (338 K, 101 kPa, x1 = 1): 1.06 ± 0.022 S/m

CC[N+](CC)(CC)CC.[Cl-] + NCCCO
viscosity (293.15 K, 101.3 kPa, x2 = 0.8): 55.2 ± 2.7 mPa·s
viscosity (293.15 K, 101.3 kPa, x2 = 0.8571): 46.6 ± 2.7 mPa·s
viscosity (293.15 K, 101.3 kPa, x2 = 0.8889): 43.4 ± 2.4 mPa·s
viscosity (298.15 K, 101.3 kPa, x2 = 0.8): 42.4 ± 2.6 mPa·s
viscosity (298.15 K, 101.3 kPa, x2 = 0.8571): 35.8 ± 2.4 mPa·s
viscosity (298.15 K, 101.3 kPa, x2 = 0.8889): 33.4 ± 2.1 mPa·s
viscosity (303.15 K, 101.3 kPa, x2 = 0.8): 32.9 ± 2.3 mPa·s
viscosity (303.15 K, 101.3 kPa, x2 = 0.8571): 27.9 ± 2.3 mPa·s
viscosity (303.15 K, 101.3 kPa, x2 = 0.8889): 26.1 ± 2.1 mPa·s
viscosity (308.15 K, 101.3 kPa, x2 = 0.8): 26.2 ± 2.2 mPa·s
viscosity (308.15 K, 101.3 kPa, x2 = 0.8571): 22.3 ± 2.2 mPa·s
viscosity (308.15 K, 101.3 kPa, x2 = 0.8889): 21 ± 2.1 mPa·s
viscosity (313.15 K, 101.3 kPa, x2 = 0.8): 21.2 ± 2.1 mPa·s
viscosity (313.15 K, 101.3 kPa, x2 = 0.8571): 18 ± 2.1 mPa·s
viscosity (313.15 K, 101.3 kPa, x2 = 0.8889): 16.9 ± 2 mPa·s
viscosity (318.15 K, 101.3 kPa, x2 = 0.8): 17.4 ± 2.1 mPa·s
viscosity (318.15 K, 101.3 kPa, x2 = 0.8571): 14.8 ± 2.1 mPa·s
viscosity (318.15 K, 101.3 kPa, x2 = 0.8889): 14 ± 2 mPa·s
viscosity (323.15 K, 101.3 kPa, x2 = 0.8): 14.4 ± 2.1 mPa·s
viscosity (323.15 K, 101.3 kPa, x2 = 0.8571): 12.3 ± 2.1 mPa·s
viscosity (323.15 K, 101.3 kPa, x2 = 0.8889): 11.6 ± 2 mPa·s
viscosity (328.15 K, 101.3 kPa, x2 = 0.8): 12.1 ± 2 mPa·s
viscosity (328.15 K, 101.3 kPa, x2 = 0.8571): 10.4 ± 2 mPa·s
viscosity (328.15 K, 101.3 kPa, x2 = 0.8889): 9.8 ± 2 mPa·s
viscosity (333.15 K, 101.3 kPa, x2 = 0.8): 10.3 ± 2 mPa·s
viscosity (333.15 K, 101.3 kPa, x2 = 0.8571): 8.8 ± 2 mPa·s
viscosity (333.15 K, 101.3 kPa, x2 = 0.8889): 8.3 ± 2 mPa·s
